This note sets out measurements from patent publication US7585891B2, “Pesticidal (dihalopropenyl)phenylalkyl substituted benzodioxolane and benzodioxole derivatives” (FMC Corporation, priority 2003, dated 2009).

For one series, the system named is tobacco budworm. Kind of series: foliar treated test against tobacco budworm on chick pea plants. In kind it is in vivo, Heliothis virescens. To be noted: 96 hour exposure, dead plus moribund insects. Here is the method:
Certain compounds of formula I were tested against tobacco budworm on plant foliage. The foliar treated test against tobacco budworm were conducted in the following manner:
Nine-to-ten day-old chick pea plants (Cicer arietinum) were sprayed at 15 psi to runoff on both upper and lower leaf surfaces with solutions of test compound to provide application rates as high as 1000 ppm of test chemical. The solvent used to prepare the solutions of test compound was 10% acetone or methanol (v/v) and 0.1% of the surfactant octylphenoxypolyethoxyethanol in distilled water. Four replicates, each containing one chick pea plant, for each rate of application of test compound were sprayed. The treated plants were transferred to a hood where they were kept until the spray had dried.
The four chick pea plants for each replicate treated with test compound as described above were removed from their pots by cutting the stems just above the soil line. The excised leaves and stems from the four plants in each replicate were placed in individual 237 mL (8-ounce) paper cups, which contained a moistened filter paper. Five second-instar tobacco budworm (7 days old) were counted into each cup, taking care not to cause injury. An opaque plastic lid was placed on each cup, which was then held in a growth chamber for a 96 hour exposure period at 25° C., 50% relative humidity and photo-period of 12 hours light and 12 hours dark. At the end of the 96 hour exposure period the cups were opened, and the numbers of dead, moribund, and live insects were counted. Using the insect counts, the efficacy of the test compound was expressed in percent control. Percent control is derived from the total number of dead insects (TD) plus the total number of moribund insects (TM) as compared to the total number of insects (TI) in the test:
The condition of the test plants was also observed for phytotoxicity and for reduction of feeding damage as compared to an untreated control.

Series [1] deals with tobacco budworm (Heliothis virescens [Fabricius]). Kind of series: surface-treated diet test against tobacco budworm. Type of series: in vivo. The following applies: 0.25 millimolar on the surface of the diet, second instar larvae, five-day exposure; for Percent Growth Inhibition: insect weight relative to untreated controls. An excerpt: The test compounds of formula I are identified by numbers that correspond to those in Table 1.

Setting [2] is: 10 ppm foliar spray on chick pea.
[3] abbreviates: 30 ppm foliar spray on chick pea.

Regarding `CC1(C)Oc2ccc(OCCCCOc3c(Cl)cc(OCC=C(Cl)Cl)cc3Cl)cc2O1` [Compound 4, 5-{4-[4-(3,3-dichloroprop-2-enyloxy)-2,6-dichlorophenoxy]butoxy}-2,2-dimethylbenzo[d]1,3-dioxolane], the “Percent Control” value came out at 83% in the series with tobacco budworm (setting [2]) and 100% in the series on tobacco budworm (setting [3]). Besides, the “Percent Growth Inhibition” value in series [1] was 100%.

Turning to `FC1(F)Oc2ccc(OCCCCOc3c(Cl)cc(OCC=C(Cl)Cl)cc3Cl)cc2OC1(F)F` [Compound 9, 5-(3,3-Dichloroprop-2-enyloxy)-1,3-dichloro-2-[4-(2,2,3,3-tetrafluorobenzo[3,4-e]1,4-dioxan-6-yloxy)butoxy]benzene], the “Percent Control” value in the series with tobacco budworm (setting [3]) is recorded as 100%. Moreover, in series [1], the “Percent Mortality” value is listed as 100% and the “Percent Growth Inhibition” value was 100%.

Turning to `CC1(C)Oc2cccc(OCCCCOc3c(Cl)cc(OCC=C(Cl)Cl)cc3Cl)c2O1` [Compound 2, 5-(3,3-Dichloroprop-2-enyloxy)-2-[4-(2,2-dimethylbenzo[d]1,3-dioxolan-4-yloxy)butoxy]-1,3-dichlorobenzene], the results for the “Percent Control” value in the series on tobacco budworm (setting [2]) and in the series on tobacco budworm (setting [3]) were 85% and 100%, respectively. For the same molecule, the “Percent Growth Inhibition” value in series [1] is 100%.

On to `CC1(C)Cc2cc(Cl)cc(OCCOc3c(Cl)cc(OCC=C(Cl)Cl)cc3Cl)c2O1` [Compound 1], for which the “Percent Control” value in the series with tobacco budworm (setting [3]) is listed as 70%.
